Test results from article PMC2777269 (Nature medicine, 2002).
Like-named read-outs stand apart in the source and are kept apart here. Ends that are not written are not given here. * marks the point of attachment. 125I = [125I]*

Columns and labels:
human PMNs [1] = experiment: Human PMN chemotaxis; settings: n = 3
[2] = system: recombinant ALXR/FPRL1 (CHO-Gqo-ALXR cells); experiment: Chemotaxis of CHO cells expressing ALXR and Gqo chimera; settings: ATLa1 100 nM, Ac2-26 100 μM; 4 h, 37 °C; n = 3
[3] = system: Zymosan A-driven PMN infiltration; experiment: Zymosan A-initiated PMN infiltration, 6-day-old murine air pouch; settings: 4 h; for inhibition of Zymosan A-driven PMN infiltration: mean, n = 8
15-epi-LXA4 = 15-epi-LXA4 generation in murine air-pouch exudates; type: in vivo, Swiss Albino mice; settings: ASA 300 μg; 4 and 16 h; n = 8
monocytes/macrophages = settings: nonphlogistic; cited from earlier work
human PMNs (ALXR/FPRL1) = biological target: T1, human PMNs (ALXR/FPRL1) (Homo sapiens, UniProt P25090); experiment: [^125I-Tyr]Ac2-26 binding, isolated human PMNs in suspension; settings: 30 nM [^125I-Tyr]Ac2-26, 40 min, 4 °C, duplicates, n = 3
T1 sequence (P25090 1-351): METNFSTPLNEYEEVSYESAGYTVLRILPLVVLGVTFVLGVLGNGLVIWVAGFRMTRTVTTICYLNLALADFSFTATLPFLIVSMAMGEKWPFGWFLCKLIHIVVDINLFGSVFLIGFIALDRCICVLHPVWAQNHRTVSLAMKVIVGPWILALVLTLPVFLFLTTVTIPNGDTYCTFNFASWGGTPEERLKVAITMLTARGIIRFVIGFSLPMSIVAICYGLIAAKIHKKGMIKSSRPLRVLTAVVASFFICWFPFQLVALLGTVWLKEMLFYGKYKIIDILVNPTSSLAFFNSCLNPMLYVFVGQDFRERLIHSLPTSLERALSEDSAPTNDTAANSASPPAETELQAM

[4] = system: human LTB4 receptor (BLT1); settings: BLT1-transfected HEK293 cells; cited from earlier work
[5] = biological target: T2, adherent human PMNs (ALXR/FPRL1) (Homo sapiens, UniProt P25090); experiment: [^125I-Tyr]Ac2-26 binding, adherent human PMNs; settings: 30 nM [^125I-Tyr]Ac2-26, duplicates, n = 3
T2 sequence (P25090 1-351): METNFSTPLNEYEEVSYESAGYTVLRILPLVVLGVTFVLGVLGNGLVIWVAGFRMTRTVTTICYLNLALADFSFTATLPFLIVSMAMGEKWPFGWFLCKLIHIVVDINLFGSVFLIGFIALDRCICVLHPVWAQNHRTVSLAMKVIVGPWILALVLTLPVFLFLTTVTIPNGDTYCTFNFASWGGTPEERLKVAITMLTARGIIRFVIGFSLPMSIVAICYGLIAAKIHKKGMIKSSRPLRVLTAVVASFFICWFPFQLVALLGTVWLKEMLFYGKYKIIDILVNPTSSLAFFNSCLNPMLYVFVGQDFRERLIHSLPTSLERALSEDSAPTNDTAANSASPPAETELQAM

recombinant ALXR/FPRL1 = biological target: T3, recombinant ALXR/FPRL1 (Homo sapiens, UniProt P25090); settings: HEK293-ALXR, 30 nM [^125I-Tyr]Ac2-26, 40 min, 4 °C; duplicates, n = 3
T3 sequence (P25090 1-351): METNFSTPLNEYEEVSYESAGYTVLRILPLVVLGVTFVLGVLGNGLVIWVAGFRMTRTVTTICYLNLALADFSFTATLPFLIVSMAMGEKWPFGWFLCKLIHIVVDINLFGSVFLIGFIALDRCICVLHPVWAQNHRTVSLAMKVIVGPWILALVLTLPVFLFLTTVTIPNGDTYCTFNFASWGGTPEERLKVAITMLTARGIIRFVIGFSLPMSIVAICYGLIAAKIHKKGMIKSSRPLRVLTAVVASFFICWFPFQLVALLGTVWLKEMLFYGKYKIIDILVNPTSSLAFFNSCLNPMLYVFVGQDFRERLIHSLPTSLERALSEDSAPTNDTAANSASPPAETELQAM

[6] = system: PMN transmigration and adhesion; settings: cited from earlier work
human PMNs [7] = experiment: Ca^2+ mobilization in Fura2-AM-loaded human PMNs
[8] = biological target: T4, human recombinant lipoxin A4 receptor (ALXR/FPRL1) expressed on HEK293 cells (human, UniProt P25090 1-351); experiment: radioligand binding
T4 sequence (looked up): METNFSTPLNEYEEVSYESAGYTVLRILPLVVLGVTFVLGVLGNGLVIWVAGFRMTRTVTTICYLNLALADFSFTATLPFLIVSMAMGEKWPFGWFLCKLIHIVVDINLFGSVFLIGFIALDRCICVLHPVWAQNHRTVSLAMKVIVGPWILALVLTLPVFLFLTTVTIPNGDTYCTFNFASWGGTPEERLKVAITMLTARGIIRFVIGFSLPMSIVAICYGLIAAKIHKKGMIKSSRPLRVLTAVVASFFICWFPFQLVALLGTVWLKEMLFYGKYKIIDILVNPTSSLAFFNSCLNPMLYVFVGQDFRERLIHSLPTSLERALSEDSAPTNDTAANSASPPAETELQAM

ALXR/FPRL1 [9] = settings: cited from earlier work
human ALXR (ALXR/FPRL1) = biological target: T5, human ALXR (ALXR/FPRL1) (Homo sapiens, UniProt P25090); settings: at much higher concentrations than LXA4; cited from earlier work
T5 sequence (P25090 1-351): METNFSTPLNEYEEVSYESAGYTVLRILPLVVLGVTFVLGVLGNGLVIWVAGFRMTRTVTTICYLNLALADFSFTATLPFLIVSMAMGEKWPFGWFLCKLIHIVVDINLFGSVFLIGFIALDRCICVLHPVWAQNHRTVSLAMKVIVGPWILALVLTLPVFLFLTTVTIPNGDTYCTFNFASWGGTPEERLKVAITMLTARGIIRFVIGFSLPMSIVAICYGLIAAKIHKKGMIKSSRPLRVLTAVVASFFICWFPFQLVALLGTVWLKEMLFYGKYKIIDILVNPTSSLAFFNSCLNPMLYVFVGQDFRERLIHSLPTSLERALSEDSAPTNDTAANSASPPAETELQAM

[10] = system: human PMN oxidative burst; settings: cited from earlier work
[11] = system: formyl peptide receptors (FPRs); settings: partially diminished; cited from earlier work
ANXA1 = ANXA1 generation in murine air-pouch exudates; type: in vivo, Swiss Albino mice; settings: 4 h versus 16 h; n = 8
ALXR/FPRL1 [12] = experiment: ANXA1/ALXR co-immunoprecipitation, human PMNs; type: binding; settings: non-adherent human PMNs (control)
[13] = system: PMN transmigration and phagocytosis; settings: in vitro and in vivo; cited from earlier work
[14] = biological target: T4, human recombinant lipoxin A4 receptor …; experiment: radioligand binding; remark: listed apart in the source

CCCCCC(C)(O)/C=C/C=C\C=C\C=C\[C@@H](O)[C@@H](O)CCCC(=O)O (mixture of isomers) [ATLa1, 15(R/S)-methyl-LXA4]
block of Ac2-26-evoked chemotaxis, human PMNs (human PMNs [1]; ATLa1 10 or 100 nM, 30 min, 37 °C, Ac2-26 1–10 μM): clearly blocked Ac2-26 evoked chemotaxis | chemotactic activity, human PMNs (human PMNs [1]; Ac2-26 1–10 μM or ATLa1 alone 10–100 nM): did not evoke chemotaxis | chemotaxis responses, CHO-Gqo-ALXR cells [2]: clear chemotaxis responses

CC(=O)Oc1ccccc1C(=O)O [ASA, Aspirin, reference compound]
inhibition of Zymosan A-driven PMN infiltration ([3]; ASA alone 1 mg into pouch 15 min before Zymosan A (1 mg)): 36% | 15-epi-LXA4 (ATL) generation in ASA-treated animals (15-epi-LXA4): generated and present in ASA-treated animals at 4 hours that diminished by 16 hours

O=C(O)CCC[C@H](O)[C@H](O)/C=C/C=C/C=C\C=C\[C@@H](O)COc1ccc(F)cc1 [ATLa, 15-epi-16-(para-fluoro)-phenoxy-LXA4]
inhibition of PMN infiltration, i.v. ATLa 5 μg ([3]; 5 μg per mouse (~12 nmol) i.v. 15 min before Zymosan A, n = 6–8): ~ 40% | inhibition of PMN infiltration, administered (in words) ([3]; ATLa 0.5–5 μg, Ac2-26 5–100 μg i.v., n = 6–8): potent inhibitors of PMN infiltration

C[C@@H]1C[C@H]2[C@@H]3CCC4=CC(=O)C=C[C@]4(C)[C@@]3(F)[C@@H](O)C[C@]2(C)[C@@]1(O)C(=O)CO [DEX, dexamethasone, reference compound]
inhibition of Zymosan A-driven PMN infiltration ([3]; DEX alone 10 μg into pouch 15 min before Zymosan A (1 mg)): 53%

CCCCC[C@H](O)/C=C/C=C\C=C\C=C\[C@@H](O)[C@@H](O)CCCC(=O)O [LXA4, lipoxin A4, reference compound]
enhanced uptake of apoptotic neutrophils by monocytes/macrophages (monocytes/macrophages): enhance the uptake of apoptotic neutrophils | competition for [^125I-Tyr]Ac2-26 binding to human PMN (in words) (human PMNs (ALXR/FPRL1); suspension): competed for [^125I-Tyr]Ac2-26 peptide binding to human PMN | competition for [^3H]LTB4 binding [4]: neither LXA4 (ref. [18]) nor Ac2-26 peptide competed | competition for specific [^125I-Tyr]Ac2-26 binding, adherent PMNs (in words) [5]: retained their ability to compete | competition for specific [^125I-Tyr]Ac2-26 binding (in words) (recombinant ALXR/FPRL1): specifically competed

O=c1c(-c2ccc(O)cc2)coc2cc(O)cc(O)c12 [genistein, reference compound]
modulation of LXA4-regulated PMN transmigration and adhesion [6]: modulates LXA4-regulated PMN transmigration and adhesion | block of Ac2-26 calcium mobilization response (human PMNs [7]; Supplementary Fig. B, panel c): partially blocked

Ac2-6: ANXA1-derived peptide (Ac-AMVSE; UniProt P04083 2-6, looked up, fragment)
inhibition of PMN infiltration, i.v. peptides (in words) ([3]; i.v. tail vein 15 min prior to 1 mg Zymosan A, 6–12 mice): inhibited PMN infiltration in a dose-dependent fashion

Ac-AMVSEFLKQAWFIENEEQEYVQTVK [ANXA1-derived peptide Ac2-26 (unlabelled)]
IC50 [8]: ~300 nM

B1: SAA: a proteolytic product of the acute phase response (protein, UniProt P0DJI8 19-122, looked up)
Serum amyloid A-1 protein: RSFFSFLGEAFDGARDMWRAYSDMREANYIGSDKYFHARGNYDAAKRGPGGAWAAEVITDARENIQRFFGHGAEDSLADQAANEWGRSGKDPNHFRPAGLPEKY
activation of HEK293 cells expressing ALXR/FPRL1 (ALXR/FPRL1 [9]): activates HEK293 cells expressing ALXR/FPRL1 | IC50 (human PMNs (ALXR/FPRL1); read-out: apparent IC50, competition for specific [^125I-Tyr]Ac2-26 binding, human PMNs in suspension): ~1000 nM | competition for specific [^3H]LXA4 binding (in words) (human ALXR (ALXR/FPRL1)): competes for specific [^3H]LXA4 binding | inhibition of human PMN oxidative burst [10]: inhibits human PMN oxidative burst | competition for specific [^125I-Tyr]Ac2-26 binding, adherent PMNs (in words) [5]: retained their ability to compete

B2: hrANXA1: human recombinant annexin 1 (protein)
chain: MAMVSEFLKQAWFIENEEQEYVQTVKSSKGGPGSAVSPYPTFNPSSDVAALHKAIMVKGVDEATIIDILTKRNNAQRQQIKAAYLQETGKPLDETLKKALTGHLEEVVLALLKTPAQFDADELRAAMKGLGTDEDTLIEILASRTNKEIRDINRVYREELKRDLAKDITSDTSGDFRNALLSLAKGDRSEDFGVNEDLADSDARALYEAGERRKGTDVNVFNTILTTRSYPQLRRVFQKYTKYSKHDMNKVLDLELKGDIEKCLTAIVKCATSKPAFFAEKLHQAMKGVGTRHKALIRIMVSRSEIDMNDIKAFYQKMYGISLCQAILDETKGDYEKILVALCGGN
effect on cellular response to subsequent fMLP (in words) (human PMNs [7]; Ac2-26 10 μM, hrANXA1 0.5 μM): did not affect the cellular response

B3: ANXA1: protein of 346 amino acids and a member of the annexin superfamily, highly abundant PMN-derived protein induced by glucocorticoids (protein, UniProt P04083 2-346, looked up)
Annexin A1: AMVSEFLKQAWFIENEEQEYVQTVKSSKGGPGSAVSPYPTFNPSSDVAALHKAIMVKGVDEATIIDILTKRNNAQRQQIKAAYLQETGKPLDETLKKALTGHLEEVVLALLKTPAQFDADELRAAMKGLGTDEDTLIEILASRTNKEIRDINRVYREELKRDLAKDITSDTSGDFRNALLSLAKGDRSEDFGVNEDLADSDARALYEAGERRKGTDVNVFNTILTTRSYPQLRRVFQKYTKYSKHDMNKVLDLELKGDIEKCLTAIVKCATSKPAFFAEKLHQAMKGVGTRHKALIRIMVSRSEIDMNDIKAFYQKMYGISLCQAILDETKGDYEKILVALCGGN
reduction of ANXA1 interactions with circulating leukocytes or peritoneal macrophages in FPR-deficient mice [11]: ~ 40% | ANXA1 generation in exudates (ANXA1): low at 4 hours and much higher at 16 hours | co-immunoprecipitation of ANXA1 with ALXR/FPRL1, non-adherent PMNs (ALXR/FPRL1 [12]): not co-immunoprecipitated | inhibition of PMN transmigration and phagocytosis [13]: potent inhibitors of PMN transmigration and phagocytosis | competition for specific [^125I-Tyr]Ac2-26 binding (in words) (recombinant ALXR/FPRL1): competed for [^125I-Tyr]Ac2-26 binding with similar affinity

Ac-AMVSEFLKQAW [ANXA1-derived peptide Ac2-12]
IC50 [8]: ~300 nM | IC50 [14]: ~20000 nM

Ac-AMVSEFLKQAWFIENEEQEY(125I)VQTVK [[125I-Tyr]Ac2-26 peptide (radio-iodinated ANXA1-derived peptide Ac2-26)]
Kd [14]: ~900 nM
